# Assay results from ChEMBL document CHEMBL1145363, “Discovery of 6-ethyl-2,4-diaminopyrimidine-based small molecule renin inhibitors” (Bioorg Med Chem Lett, 2007).
# Key:
# Renin = molecular target: T1, Renin (Homo sapiens, UniProt P00797); assay: Inhibition of renin
# T1 sequence (P00797 whole entry): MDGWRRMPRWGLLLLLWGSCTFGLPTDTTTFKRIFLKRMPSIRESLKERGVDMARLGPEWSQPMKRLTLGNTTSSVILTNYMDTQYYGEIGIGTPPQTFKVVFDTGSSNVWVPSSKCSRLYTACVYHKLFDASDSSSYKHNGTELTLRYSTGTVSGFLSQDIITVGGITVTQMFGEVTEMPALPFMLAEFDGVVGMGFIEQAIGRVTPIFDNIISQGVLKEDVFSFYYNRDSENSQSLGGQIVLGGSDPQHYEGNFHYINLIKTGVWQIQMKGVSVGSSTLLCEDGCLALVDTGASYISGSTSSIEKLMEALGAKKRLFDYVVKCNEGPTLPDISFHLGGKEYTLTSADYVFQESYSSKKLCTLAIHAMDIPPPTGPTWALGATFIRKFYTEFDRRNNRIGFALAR
# Homo sapiens = species on record: Homo sapiens; assay: Inhibition of pepsin at 100 uM
# [1] = molecular target: Cathepsin D (Homo sapiens) (UniProt P07339); assay: Inhibition of cathepsin D at 100 uM
# Sequence of Cathepsin D (Homo sapiens) (P07339 65-162 limits assumed): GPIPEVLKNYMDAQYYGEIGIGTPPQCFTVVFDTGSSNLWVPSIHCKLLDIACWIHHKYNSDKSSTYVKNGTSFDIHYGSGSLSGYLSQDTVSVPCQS
# Sequence of Cathepsin D (Homo sapiens) (P07339 169-412 limits assumed): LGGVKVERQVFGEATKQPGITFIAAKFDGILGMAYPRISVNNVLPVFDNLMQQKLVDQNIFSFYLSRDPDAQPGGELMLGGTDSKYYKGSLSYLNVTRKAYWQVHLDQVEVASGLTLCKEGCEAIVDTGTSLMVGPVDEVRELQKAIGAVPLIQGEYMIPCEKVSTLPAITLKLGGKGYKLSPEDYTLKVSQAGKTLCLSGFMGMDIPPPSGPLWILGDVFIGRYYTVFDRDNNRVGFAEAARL
# [2] = Half life in human liver microsome; format: ADME; conditions: liver microsomes
# [3] = molecular target: T2, Cathepsin E (Homo sapiens) (UniProt P14091); assay: Inhibition of cathepsin E at 100 uM
# T2 sequence (whole entry): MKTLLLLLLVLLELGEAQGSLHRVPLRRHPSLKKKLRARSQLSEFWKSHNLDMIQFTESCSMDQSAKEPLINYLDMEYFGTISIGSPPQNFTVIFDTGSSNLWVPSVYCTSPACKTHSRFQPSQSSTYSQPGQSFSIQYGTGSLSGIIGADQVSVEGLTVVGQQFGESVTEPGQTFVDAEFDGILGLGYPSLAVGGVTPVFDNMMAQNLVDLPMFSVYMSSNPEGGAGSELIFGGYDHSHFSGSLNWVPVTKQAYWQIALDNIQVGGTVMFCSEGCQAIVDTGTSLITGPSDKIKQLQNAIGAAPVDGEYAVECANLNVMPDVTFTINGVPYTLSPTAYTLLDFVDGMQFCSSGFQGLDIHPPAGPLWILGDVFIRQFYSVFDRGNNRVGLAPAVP
# [4] = Solubility of the compound; format: physicochemical
# [5] = Plasma clearance in Sprague-Dawley rat; format: ADME, organism-based
# [6] = Elimination half life in Sprague-Dawley rat; format: ADME, organism-based; conditions: in vivo
# Cytochrome P450 3A4 = Cytochrome P450 3A4 (Homo sapiens, UniProt P08684); assay: Inhibition of CYP3A4; format: ADME
# Sequence of Cytochrome P450 3A4 (P08684 whole entry): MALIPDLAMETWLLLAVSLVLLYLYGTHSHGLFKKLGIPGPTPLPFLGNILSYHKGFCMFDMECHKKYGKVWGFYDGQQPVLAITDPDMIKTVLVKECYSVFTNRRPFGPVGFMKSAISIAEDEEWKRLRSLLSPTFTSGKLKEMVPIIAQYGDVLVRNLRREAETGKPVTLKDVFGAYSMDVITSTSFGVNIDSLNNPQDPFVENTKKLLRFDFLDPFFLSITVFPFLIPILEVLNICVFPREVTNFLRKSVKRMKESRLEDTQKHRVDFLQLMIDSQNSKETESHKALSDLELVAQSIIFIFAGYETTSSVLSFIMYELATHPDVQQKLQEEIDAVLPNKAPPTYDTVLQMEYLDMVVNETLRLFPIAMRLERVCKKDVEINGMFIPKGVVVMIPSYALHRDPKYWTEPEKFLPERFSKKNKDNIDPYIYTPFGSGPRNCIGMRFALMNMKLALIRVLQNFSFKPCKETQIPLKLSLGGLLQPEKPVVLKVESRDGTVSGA
# [7] = Oral bioavailability in Sprague-Dawley rat; format: ADME, organism-based; conditions: in vivo
# [8] = Volume of distribution in Sprague-Dawley rat; format: ADME, organism-based; conditions: in vivo, read-out: Vdss
SMILES,IC50 (Renin),inhibition (Homo sapiens),inhibition [1],half-life [2],inhibition [3],solubility [4],clearance [5],half-life [6],IC50 (Cytochrome P450 3A4),bioavailability [7],Vd [8]
COc1ccccc1COCCCOc1ccc(N2C(=O)CNC[C@@H]2COc2ccc3c(c2)N(CCNC(C)=O)CCC3)cc1,0.5 nM,,,,,,,,,,
CCc1nc(N)nc(N)c1-c1ccc2c(c1)N(CCCC(=O)OC)CCC2,120 nM,0%,0%,5 min,0%,,,,,,
CCc1nc(N)nc(N)c1-c1ccc(NCc2cc(F)cc(F)c2)cc1,4000 nM,,,,,,,,,,
CCc1nc(N)nc(N)c1-c1ccc2c(c1)N(CCCOC)CCC2,650 nM,0%,0%,,0%,59.3 µg/mL,36.8 mL/min/kg,66.6 min,2800 nM,< 10%,1.6 L/kg
CCc1nc(N)nc(N)c1-c1ccc2c(c1)N(CCC(=O)OC)CCC2,198 nM,0%,0%,5 min,0%,,,,10000 nM,,
CCc1nc(N)nc(N)c1-c1ccc2c(c1)N(CCCCC(=O)OC)CCC2,91 nM,0%,0%,5 min,0%,,,,12000 nM,,
CCc1nc(N)nc(N)c1-c1ccc(NCc2ccc(Cl)c(Cl)c2)cc1,27000 nM,,,,,,,,,,
CCc1nc(N)nc(N)c1-c1ccc2c(c1)N(CCNC(C)=O)CCC2,178 nM,0%,0%,,0%,,,,8000 nM,,
COC[C@@H](O)CO[C@@H]1CNC[C@H](OCc2cc(OC)c3ccccc3c2)[C@H]1c1ccc(OCCCOCc2ccccc2OC)cc1,0.067 nM,,,,,,,,,,
